Assay results published in patent US9181223B2, “2-aminopyrimidin-6-ones and analogs exhibiting anti-cancer and anti-proliferative activities” (Deciphera Pharmaceuticals, LLC, priority 2013, dated 2015).

Columns and labels:
[1] = biological target: T1, unphosphorylated c-KIT kinase (uKIT, Seq. ID no. 2) (Homo sapiens, UniProt P10721); assay: uKit kinase assay (ADP production coupled to pyruvate kinase/lactate dehydrogenase); assay type: biochemical
T1 construct: uKit with N-terminal GST fusion used for screening
T1 sequence (P10721 with tags, fused parts or gaps): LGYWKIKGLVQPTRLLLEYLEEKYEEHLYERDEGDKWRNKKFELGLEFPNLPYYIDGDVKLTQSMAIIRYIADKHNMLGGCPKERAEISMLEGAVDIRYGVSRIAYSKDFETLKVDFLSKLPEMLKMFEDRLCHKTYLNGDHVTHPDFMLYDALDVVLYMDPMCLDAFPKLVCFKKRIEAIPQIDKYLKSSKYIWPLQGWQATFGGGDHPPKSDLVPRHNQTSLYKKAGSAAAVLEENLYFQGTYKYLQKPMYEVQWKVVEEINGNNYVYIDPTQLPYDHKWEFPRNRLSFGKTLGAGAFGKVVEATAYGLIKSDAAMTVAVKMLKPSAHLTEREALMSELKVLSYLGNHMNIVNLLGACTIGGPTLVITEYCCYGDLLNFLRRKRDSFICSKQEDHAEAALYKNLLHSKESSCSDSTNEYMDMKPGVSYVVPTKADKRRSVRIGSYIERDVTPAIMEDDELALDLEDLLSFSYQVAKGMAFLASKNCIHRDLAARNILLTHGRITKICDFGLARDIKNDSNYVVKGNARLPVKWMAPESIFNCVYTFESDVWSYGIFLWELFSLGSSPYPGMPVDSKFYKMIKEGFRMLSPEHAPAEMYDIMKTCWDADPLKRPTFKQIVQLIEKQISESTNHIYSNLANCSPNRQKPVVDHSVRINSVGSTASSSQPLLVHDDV
Method: In this assay, the oxidation of NADH (thus the decrease at A340 nm) was continuously monitored spectrophometrically. […] The inhibition reaction was started by mixing serial diluted test compound with the above reaction mixture. The absorption at 340 nm was monitored continuously for 4 hours at 30° C. on Synergy 2 plate reader (BioTech).

[2] = biological target: T2, unphosphorylated PDGFRβ kinase (uPDGFRβ, Seq. ID No. 3) (Homo sapiens, UniProt P09619); assay: uPDGFRβ kinase assay (ADP production coupled to pyruvate kinase/lactate dehydrogenase); assay type: biochemical; details: enzymatic assay, ATP 500 μM
T2 construct: purchased DeCode
T2 sequence (P09619 557-1106): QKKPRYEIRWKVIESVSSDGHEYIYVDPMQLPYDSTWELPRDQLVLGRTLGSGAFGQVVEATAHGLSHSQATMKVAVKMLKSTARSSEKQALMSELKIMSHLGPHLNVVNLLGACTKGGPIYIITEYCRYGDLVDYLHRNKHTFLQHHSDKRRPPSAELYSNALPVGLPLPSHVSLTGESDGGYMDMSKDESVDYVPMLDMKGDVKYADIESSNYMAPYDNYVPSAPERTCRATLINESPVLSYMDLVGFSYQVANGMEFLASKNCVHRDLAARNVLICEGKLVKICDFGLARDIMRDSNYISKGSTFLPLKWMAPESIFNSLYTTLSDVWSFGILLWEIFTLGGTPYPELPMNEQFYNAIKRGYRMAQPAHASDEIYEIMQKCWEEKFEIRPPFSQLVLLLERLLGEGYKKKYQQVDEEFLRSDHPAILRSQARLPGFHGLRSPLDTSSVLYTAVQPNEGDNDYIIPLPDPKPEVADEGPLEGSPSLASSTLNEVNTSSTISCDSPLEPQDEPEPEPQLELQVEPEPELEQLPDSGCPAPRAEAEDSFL
Method: Unphosphorylated […]β) Kinase (Seq. ID No. 3) Assay Activity of unphosphorylated PDGFRβ kinase ([…] No. 3) was determined by following the production of ADP from the kinase reaction with ATP and poly E4Y as substrates through coupling with the pyruvate kinase/lactate dehydrogenase system (e.g., Schindler et al. Science (2000) 289: 1938-1942). In this assay, the oxidation of NADH (thus the decrease at A340 nm) was continuously monitored spectrophometrically. The reaction mixture (100 μL) contained PDGFRβ (DeCode, 15.7 nM), polyE4Y (2.5 mg/mL), MgCl2 (10 mM), pyruvate kinase (4 units), lactate dehydrogenase (0.7 units), phosphoenol pyruvate (1 mM) and NADH (0.28 mM) and ATP (500 μM) in a 90 mM Tris buffer containing 0.2% octyl-glucoside and 1% DMSO, at pH 7.5. The inhibition reaction was started by mixing serial diluted test compound with the above reaction mixture. The absorption at 340 nm was monitored continuously for 4 h at 30° C. on a Polarstar Optima or Synergy 2 plate reader. The reaction rate was calculated using the 1.5 to 2.5 h time frame. Percent inhibition was obtained by comparison of reaction rate with that of a control (i.e. with no test compound). IC50 values were calculated from a series of percent inhibition values determined at a range of inhibitor concentrations using software routines as implemented in the GraphPad Prism software package.

osteoclast precursors = assay: Osteoclast tartrate-resistant acid phosphatase assay; assay type: cell-based; details: tartrate-resistant acid phosphatase activity, RANKL and M-CSF, 7-14 days
Method: Osteoclast Tartrate-Resistant Acid Phosphatase Assay
A serial dilution of test compound was dispensed into a 384-well black clear bottom plate (Nalge Nunc International, Rochester, N.Y.). Compound was diluted by the addition of DMEM media supplemented with 10% characterized fetal bovine serum (Invitrogen, Carlsbad, Calif.). Diluted compound was transferred to a 384-well black clear bottom plate. Two-thousand five hundred osteoclast precursors (Lonza, Walkersville, Md.) were added per well in growth media containing Receptor Activator of Nuclear Factor Kappa-beta ligand (RANKL) and M-CSF (R&D Systems, Minneapolis, Minn.). Plates were incubated for 7-14 days at 37 degrees Celsius, 5% CO2, and 95% humidity to allow differentiation of osteoclast precursors. At the end of the incubation period, 10 μL of supernatant from each well was transferred to a clear 384-well plate. Tartrate-resistant acid phosphatase activity in the supernatant samples was determined using an acid phosphatase assay kit (Sigma, St. Louis, Mo.). Absorbance was measured at 550 nm using a plate reader. Data was analyzed using Prism software (Graphpad, San Diego, Calif.) to calculate IC50 values.

PC-3 M-luc cells = assay: PC-3 peritibial implant model of cancer bone metastasis; assay type: in vivo, mouse; details: oral dose of 30 mg/kg twice daily for 39 days; scale 0-4; vehicle-treated animals 4
From the text: PC-3 Peritibial Implant Model of Cancer Bone Metastasis To evaluate in vivo anti-cancer activity of compounds of formula I, the PC-3 M-luc peritibial injection model of bone invasiveness model was employed. Briefly, PC-3 M-luc cells were obtained from Xenogen Corporation (Caliper Life Sciences) and expanded using MEM media modified with L-Glutamine (Cell Gro® #10-045-CV) supplemented with 10% fetal bovine serum, 1% penicillin-streptomycin-glutamine, 1% non-essential amino acids, and 1% MEM vitamins in 5% CO2 atmosphere at 37° C. Six to 7 week old male nude mice (Crl:NU-Foxnlnu) were obtained from Charles River Laboratories. Test mice were implanted peritibially on Day 0 with 1×10^6 cells/mouse (0.1 ml) using an insulin syringe with a fixed 28-gauge needle. The needle was inserted at the ankle between the tibia and fibula until the bevel of the needle reached approximately half way between the knee and ankle. Treatments began on Day 0. Animals were dosed by oral gavage twice daily for the study duration. All procedures carried out in this experiment were conducted in compliance with all the laws, regulations and guidelines of the National Institutes of Health (NIH). […]

`Cc1nc(-c2cnc(NC(C)C)n(C)c2=O)ccc1Oc1ccnc(-c2cnn(C)c2)c1` [Example 10, 2-(isopropylamino)-3-methyl-5-(6-methyl-5-((2-(1-methyl-1H-pyrazol-4-yl)pyridin-4-yl)oxy)pyridin-2-yl)pyrimidin-4(3H)-one] showed an IC50 [1] of 100 to 1000 nM, an IC50 [2] greater than 1000 nM and an IC50 (osteoclast precursors) of less than 10 nM. It also gave a lesion score (PC-3 M-luc cells) of 2.
